The text below walks through data of publication PMC6632053, “Incorporation of Putative Helix-Breaking Amino Acids in the Design of Novel Stapled Peptides: Exploring Biophysical and Cellular Permeability Properties” (Molecules, 2019).

Data set [1] can be described thus: Circular dichroism (CD) α-helicity. The class given is physicochemical. The note with it: Table 1; CD of free peptide, 25 °C, 1 mM Hepes pH 7.4, 5% methanol. In a few lines:
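Peptide dried from methanol, reconstituted to 1 mM in 1 mM Hepes pH 7.4 with 5% methanol; concentration by A280. CD spectra 300–190 nm, 0.2 cm path, 25 °C, duplicates; converted to mean residue ellipticity and deconvoluted for secondary structure.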
(Circular dichroism is the unequal absorption of left and right circularly polarised light.)

Data set [2] has as its system p53 responsive β-lactamase reporter in HCT116 cells. Nature of the data set: p53 beta-lactamase reporter gene cellular functional assay. The class given is cell-based. The procedure, abridged:
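HCT116 cells stably carrying a p53-responsive β-lactamase reporter seeded 8000/well overnight, then switched to Opti-MEM with 0% or 10% FBS for compound treatment at 0.5% DMSO final. β-Lactamase activity measured with ToxBLAzer Dual Screen on a multiplate reader.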
For orientation: A reporter such as luciferase makes a cellular process visible.

For data set [3], the target named is T1, human Mdm2 1–125 (Homo sapiens, UniProt Q00987).
T1 construct: GST (N); His6 (internal); TEV cleavage site ENLYFQG (internal); made in house; host or cells: Escherichia coli BL21 (DE3) Rosetta T1R
Nature of the data set: Mdm2 binding assay (competitive fluorescence anisotropy/polarization). The note with it: Table 1; competitive fluorescence polarization; read-out: Mdm2 (nM), Mdm2 binding (Kd). In general terms: Polarisation of emitted light reports the rotation of a fluorescent probe.

Data set [4] is described as follows: Whole cell homogenate stability. The class given is in vitro ADME. As to conditions: 1 μM peptide, 37 °C, up to 22 h. The protocol: Peptides at a concentration of 1 μM were incubated at 37 °C with HCT116 whole cell homogenates prepared from 1 million lysed cells/mL. The reaction was stopped at 0, 1, 2, 4, and 22 h with an organic solvent followed by centrifugation. The resulting supernatant was injected into LC/MS for detection of the tested peptide. The remaining percentage of each compound was normalized to the 0 h amount and reported. As a positive control, we used the ONEG peptide with the sequence […] [28].

Data set [5] deals with T2, biotinylated Mdm2 (Homo sapiens, UniProt Q00987).
T2 construct: made in house
As to the kind of experiment: Surface plasmon resonance (SPR). In kind it is binding. The note with it: Figure 2A right panel, 25 °C.
Method: SPR experiments were performed with Biacore T100 (GE Healthcare) at 25 °C. […] The SPR buffer consisted of 50 mM Tris pH 7.4, 150 mM NaCl, 1 mM DTT, 0.05% Tween 20, and 3% DMSO. The CM5 chip was first conditioned with 100 mM HCl, followed by 0.1% SDS, 50 mM NaOH, and then water, all performed twice with 6 sec injection at a flow rate of 100 µL/min. With the flow rate set to 10 µL/min, streptavidin (S4762, Sigma-Aldrich) was immobilized on the conditioned chip through amine coupling, as described in the Biacore manual. Excess protein was removed by 30 s injection of the wash solution (50 mM NaOH + 1 M NaCl) at least eight times. The immobilized level was ~3000 RU. The biotinylated Mdm2 was captured by streptavidin, up to a level of ~400 RU. A flow cell consisting of only streptavidin was used as the reference surface. Using a flow rate of 30 µL/min, peptides dissolved in the SPR buffer were injected for 180 s. The dissociation was monitored for 300 s. […] After the run, responses from the target protein surface were transformed by: (i) correcting with the DMSO calibration curve, (ii) subtracting the responses obtained from the reference surface, and (iii) subtracting the responses of the buffer injections from those of peptide injections. The last step is known as double referencing, which corrects the systematic artefacts. […]

A short description of data set [6]: Lactate dehydrogenase (LDH) release assay. In kind it is cell-based. The note with it: membrane integrity, HCT116. The protocol: HCT116 cells were seeded into a 384-well plate at a density of 8000 cells per well. Cells were maintained in McCoy’s 5A Medium with 10% fetal bovine serum (FBS), Blasticidin, and Penicillin/Streptomycin. The cells were incubated overnight, followed by the removal of cell media and the addition of Opti-MEM Medium without FBS. Cells were then treated with peptides for 4 or 16 h in Opti-MEM, either in 10% FBS or in serum free conditions. The final concentration of DMSO was 0.5%. Lactate dehydrogenase release was detected using the CytoTox-ONE Homogenous Membrane Integrity Assay Kit (Promega), as per the manufacturer’s instructions. Measurements were carried out using the Tecan plate reader. Maximum LDH release was defined as the amount of LDH released as induced by the lytic peptide (iDNA79) and used to normalize the results.

Data set [7] has as its target T3, recombinant human Mdm2 protein (amino acids 1–125) (Homo sapiens, UniProt Q00987).
T3 construct: purified recombinant human Mdm2 protein (amino acids 1–125); made in house
Nature of the data set: Isothermal titration calorimetry (ITC). The class given is binding. As to conditions: Figure 2A middle panel. The protocol:
Overnight dialysis of protein and peptides were carried out in buffer containing 1× phosphate-buffered saline (PBS) pH 7.2, 3% DMSO, and 0.001% Tween-20. […] Reverse ITC (200 µM of Mdm2 protein titrated into 20 µM of peptide) was carried out for peptides that are insoluble at high concentrations. All experiments were performed in duplicates using the MicroCal PEAQ-ITC Automated system. Data analysis was carried out using the MicroCal PEAQ-ITC Analysis Software.

Setting [8] is: Table 1, p53 reporter assay, HCT116, read-out: Cellular (µM), cellular activity (EC50).

Where two headings read alike, the source gives them in different places. Bounds are passed on as bounds.

T1 sequence (Q00987 with tags, fused parts or gaps): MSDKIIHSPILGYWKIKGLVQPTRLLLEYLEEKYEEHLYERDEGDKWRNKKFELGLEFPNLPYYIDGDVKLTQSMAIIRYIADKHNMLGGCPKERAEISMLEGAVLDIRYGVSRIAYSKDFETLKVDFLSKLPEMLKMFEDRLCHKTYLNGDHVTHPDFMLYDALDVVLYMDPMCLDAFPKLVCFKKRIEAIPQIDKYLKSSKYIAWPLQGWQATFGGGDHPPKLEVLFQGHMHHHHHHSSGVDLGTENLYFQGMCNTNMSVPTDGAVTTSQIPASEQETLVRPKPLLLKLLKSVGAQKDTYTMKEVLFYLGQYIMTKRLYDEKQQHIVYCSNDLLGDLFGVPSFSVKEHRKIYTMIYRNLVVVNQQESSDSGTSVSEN
T3 sequence (Q00987 1-125): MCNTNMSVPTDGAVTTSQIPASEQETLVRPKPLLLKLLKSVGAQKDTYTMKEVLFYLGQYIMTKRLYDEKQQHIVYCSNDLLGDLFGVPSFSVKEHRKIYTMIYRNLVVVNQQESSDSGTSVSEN
T2 sequence (Q00987 whole entry): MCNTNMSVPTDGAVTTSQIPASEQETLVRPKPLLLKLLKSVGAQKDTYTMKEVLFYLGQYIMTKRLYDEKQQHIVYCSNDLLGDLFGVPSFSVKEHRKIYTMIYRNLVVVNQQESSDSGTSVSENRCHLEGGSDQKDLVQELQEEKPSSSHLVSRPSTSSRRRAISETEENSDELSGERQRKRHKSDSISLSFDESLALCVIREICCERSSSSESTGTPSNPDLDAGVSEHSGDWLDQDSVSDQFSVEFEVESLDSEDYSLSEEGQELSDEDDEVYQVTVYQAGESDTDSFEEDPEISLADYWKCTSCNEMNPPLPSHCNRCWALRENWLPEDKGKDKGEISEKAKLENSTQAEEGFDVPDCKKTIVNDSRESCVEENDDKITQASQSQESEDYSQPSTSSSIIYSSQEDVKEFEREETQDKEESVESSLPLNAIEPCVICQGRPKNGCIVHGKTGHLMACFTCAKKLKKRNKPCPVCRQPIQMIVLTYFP

As for `CC(=O)N[C@@H](CC(C)C)C(=O)N[C@H](C(=O)N[C@@H](Cc1ccccc1)C(=O)NC(C)(C)C(=O)N[C@@H](CCC(=O)O)C(=O)N[C@@H](Cc1ccc(O)cc1)C(=O)N[C@@H](Cc1c[nH]c2ccccc12)C(=O)N[C@@H](CCC(N)=O)C(=O)N[C@@H](CC(C)C)C(=O)N[C@@H](CC1CCC1)C(=O)NC(C)(C)C(=O)N[C@@H](CO)C(=O)N[C@@H](C)C(=O)N[C@@H](C)C(N)=O)[C@@H](C)O` [Linear Parent (MP-189), Ac–Leu–Thr–Phe–Aib–Glu–Tyr–Trp–Gln–Leu–Cba–Aib–Ser–Ala–Ala–NH2], the “Helicity (%)” value in data set [1] is on record as 35.3%. In data set [2] (setting [8]), the EC50 (usually the midpoint of the concentration-response curve) was found to be 33.5 µM. The equilibrium dissociation constant (Kd) (in general, a measure of binding affinity in units of concentration) in data set [3] was 43.1 nM. For the same molecule, the “stability in whole cell homogenate” value in data set [4] is recorded as “moderate stabilities”.
Turning to `CC(=O)N[C@@H](CC(C)C)C(=O)N[C@H](C(=O)N[C@@H](Cc1ccccc1)C(=O)N[C@]1(C)CCCCCCC=CCCC[C@@](C)(C(=O)N[C@@H](CO)C(=O)N[C@@H](C)C(=O)N[C@@H](C)C(N)=O)NC(=O)[C@H](CC2CCC2)NC(=O)[C@H](CC(C)C)NC(=O)[C@H](CCC(N)=O)NC(=O)[C@H](Cc2c[nH]c3ccccc23)NC(=O)[C@H](Cc2ccc(O)cc2)NC(=O)[C@H](CCC(=O)O)NC1=O)[C@@H](C)O` [MP-292], the results for the Kd in data set [5], in data set [3] and in data set [7] were 1.4 nM, 18.6 nM and less than 20 nM, respectively. Further, the “Helicity (%)” value in data set [1] turned out to be 32.8%. For the same molecule, the EC50 was 0.5 µM in data set [2] (0% serum, read-out: p53 reporter assay EC50); 0.7 µM in data set [2] (2% serum, read-out: p53 reporter assay EC50); 4.2 µM in data set [2] (10% serum, read-out: p53 reporter assay EC50); 0.54 µM in data set [2] (setting [8]); more than 50000 nM in data set [6]. For the same molecule, in data set [4], the “stability in whole cell homogenate” value is “minimal degradation”.
